Experimental data as given in patent US11572399B2, “Long-acting GIP peptide analogues” (University of Copenhagen, priority 2017, dated 2023).
pIC50: −log10 of the molar value. Where “and” joins values, the source holds several entries; their conditions need not be identical. Equal values may be shown once. Peptide text beside a SMILES is read from it. * marks the point of attachment. C16 diacid = O=C(O)CCCCCCCCCCCCCCC(=O)*; Palmitoyl = CCCCCCCCCCCCCCCC(=O)*

Experiments:
human GIP receptor [1] = target: T1, human GIP receptor (Homo sapiens, UniProt P48546); assay: 125I-human GIP competition binding assay, in the presence and absence of 2% HSA; details: for Fold change HSA (2%)/Casein (0.1%): IC50 (plus HSA)/IC50 (minus HSA); for Ki: absence of HSA; for Binding (+/−HSA) Fold: fold change +HSA/−HSA;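 on all read-outs here: nonspecific binding taken as radioligand bound to untransfected cells, IC50 obtained from nonlinear regression fits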
T1 construct: host or cells: COS-7, transient transfection (calcium phosphate), cDNA in pCMV-Script
T1 sequence (P48546 22-466): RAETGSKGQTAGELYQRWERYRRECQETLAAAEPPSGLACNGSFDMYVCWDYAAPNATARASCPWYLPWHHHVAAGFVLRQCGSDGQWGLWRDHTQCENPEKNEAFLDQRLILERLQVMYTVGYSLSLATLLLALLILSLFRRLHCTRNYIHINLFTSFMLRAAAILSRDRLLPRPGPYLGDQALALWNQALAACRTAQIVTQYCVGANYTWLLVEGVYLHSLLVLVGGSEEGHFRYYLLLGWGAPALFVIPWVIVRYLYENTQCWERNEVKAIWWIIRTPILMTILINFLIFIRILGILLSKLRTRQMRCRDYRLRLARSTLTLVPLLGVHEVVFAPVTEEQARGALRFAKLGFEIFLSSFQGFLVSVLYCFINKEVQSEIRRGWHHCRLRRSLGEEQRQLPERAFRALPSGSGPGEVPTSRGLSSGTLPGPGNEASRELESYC

human GIP receptor [2] = target: T1, human GIP receptor; assay: cAMP accumulation assay, agonism (ligand alone); type: cell-based; details: Table 1; for Emax: COS-7, intrinsic cAMP activity, COS-7 cells; for EC50: given as log EC50 (negative sign), read-out: cAMP agonism EC50 (log) (converted)
human GIP receptor [3] = target: T1, human GIP receptor; assay: cAMP accumulation assay, antagonism of a GIP-mediated cAMP response (50-80% of max); type: cell-based; details: for IC50: transiently transfected COS-7 cells, Table 1 and text, read-out: cAMP antagonism nM (IC50, antagonistic potency); for Fold change of IC50 versus GIP(5-30)NH2: fold change of IC50 from GIP(5-30)NH2
Method: The day after, the cells were washed twice with Hepes buffered saline (HBS) buffer and incubated with HBS and 1 mM 3-isobutyl-1-methylxanthine (IBMX) for 30 min at 37° C. […] The HitHunter™ cAMP XS assay (DiscoveRx) was carried out according to the manufacturer's instructions.

[4] = Elimination half-life (T1/2) estimated in pigs, subcutaneous, RIA; type: in vivo; details: pig
Method: LYH/LYD strain pigs or mini-pigs were housed in the animal facility at the Faculty of Health and Medical Sciences.
A pig was subcutaneously administered one of the lipidated GIP(3-30)NH2 analogs (compound AT117) (1-10 nmol/kg, total volume 2-6 mL) after which 10-18 blood samples were collected before and up to 57 hours post subcutaneous administration) from a central venous catheter. The catheter was flushed with saline and heparin between samples. Blood was collected into cold EDTA tubes, centrifuged and plasma was kept at −20° C. pending analyses. When experiments are completed, the animals will be killed.
Concentrations of the lipidated GIP(3-30)NH2 or GIP(5-30)NH2 analogues in blood samples from pigs were analysed by RIA. Analogues' immunoreactivity was determined using antiserum Ab95234, Ab95235, Ab95236, a polyclonal in-house antibody raised in rabbits specific for either the mid region of GIP(1-30)NH2 or amidated C-terminus of GIP(3-30)NH2.

[5] = heterologous competition binding, transiently transfected COS-7 cells expressing the human GIP receptor, read-out: Binding
[6] = heterologous competition binding, transiently transfected COS-7 cells expressing the human GIP receptor, log value of the nM column, read-out: Binding log (converted)

Compound	IC50 (human GIP receptor [1]; 0.1% casein, no HSA, Table 3b, read-out: Binding logIC50 0.1% casein (converted)) [nM]	IC50 (human GIP receptor [1]; 2% HSA, Table 3b, read-out: Binding logIC50 2% HSA (converted)) [nM]	pIC50 (human GIP receptor [1]; Table 3b, initial data, read-out: Binding IC50)	IC50 (human GIP receptor [1]; binding in presence of 2% HSA, read-out: logIC50 2% HSA (converted)) [nM]	Binding fold (paired) (human GIP receptor [1]; fold decrease in affinity compared to GIP(3-30)NH2, Table 3b) [fold]	pIC50 (human GIP receptor [1]; [5])	Fold change in affinity, IC50 (plus HSA)/IC50 (minus HSA) (human GIP receptor [1]; presence vs absence of 2% HSA, proxy for albumin binding) [fold]	Emax (human GIP receptor [2]) [%]	cAMP - antagonisme fold (paired) (human GIP receptor [3]; fold vs GIP(3-30)NH2, Table 3b) [fold]	IC50 (human GIP receptor [3]) [nM]	half-life ([4]; plasma, sc, pigs, subcutaneous 1-10 nmol/kg) [min]	T½ ([4]; subcutaneous) [h]	Fold change HSA (2%)/Casein (0.1%) (human GIP receptor [1])	Ki (human GIP receptor [1]) [nM]	Binding (+/−HSA) Fold (human GIP receptor [1])	IC50 (human GIP receptor [1]; [6])	Fold change of IC50 versus GIP(5-30)NH2 (human GIP receptor [3])	EC50 (human GIP receptor [2])
CCCCCCCCCCCCCCCC(=O)NCCCC[C@H](NC(=O)[C@@H](NC(=O)[C@H](CCCCN)NC(=O)[C@H](CC(=O)O)NC(=O)[C@H](CCSC)NC(=O)[C@H](C)NC(=O)[C@@H](NC(=O)[C@H](CO)NC(=O)[C@H](Cc1ccc(O)cc1)NC(=O)[C@H](CC(=O)O)NC(=O)[C@H](CO)NC(=O)[C@@H](NC(=O)[C@H](Cc1ccccc1)NC(=O)[C@@H](NC(=O)CNC(=O)[C@@H](N)CCC(=O)O)[C@@H](C)O)[C@@H](C)CC)[C@@H](C)CC)[C@@H](C)CC)C(=O)N[C@@H](CCC(N)=O)C(=O)N[C@@H](CCC(N)=O)C(=O)N[C@@H](CC(=O)O)C(=O)N[C@@H](Cc1ccccc1)C(=O)N[C@H](C(=O)N[C@@H](CC(N)=O)C(=O)N[C@@H](Cc1c[nH]c2ccccc12)C(=O)N[C@@H](CC(C)C)C(=O)N[C@@H](CC(C)C)C(=O)N[C@@H](C)C(=O)N[C@@H](CCC(N)=O)C(=O)N[C@@H](CCCCN)C(N)=O)C(C)C [AT117, [hGIP(3-30)NH2[H18K]-C16/18]] (H-EGTFISDYSIAMDKIK(Palmitoyl)QQDFVNWLLAQK-NH2; N-terminus assumed)	110	1730	6.53	1730	12	6.53	15.7	0	2.3	15	480	8						
CC[C@H](C)[C@H](NC(=O)[C@H](CO)NC(=O)[C@H](Cc1ccc(O)cc1)NC(=O)[C@H](CC(=O)O)NC(=O)[C@H](CO)NC(=O)[C@@H](NC(=O)[C@H](Cc1ccccc1)NC(=O)[C@@H](N)[C@@H](C)O)[C@@H](C)CC)C(=O)N[C@@H](C)C(=O)N[C@@H](CCSC)C(=O)N[C@@H](CC(=O)O)C(=O)N[C@@H](CCCCN)C(=O)N[C@H](C(=O)N[C@@H](Cc1c[nH]cn1)C(=O)N[C@@H](CCC(N)=O)C(=O)N[C@@H](CCC(N)=O)C(=O)N[C@@H](CC(=O)O)C(=O)N[C@@H](Cc1ccccc1)C(=O)N[C@H](C(=O)N[C@@H](CC(N)=O)C(=O)N[C@@H](Cc1c[nH]c2ccccc12)C(=O)N[C@@H](CCCCNC(=O)CCCCCCCCCCCCCCC(=O)O)C(=O)N[C@@H](CC(C)C)C(=O)N[C@@H](C)C(=O)N[C@@H](CCC(N)=O)C(=O)N[C@@H](CCCCN)C(N)=O)C(C)C)[C@@H](C)CC [AT186, [hGIP(5-30)NH2[L26K]-C16diacid/26]] (H-TFISDYSIAMDKIHQQDFVNWK(C16 diacid)LAQK-NH2; N-terminus assumed)								0		79			3.8	105	7.9	158 nM and 144 nM	2.6	
CC[C@H](C)[C@H](NC(=O)[C@H](CO)NC(=O)[C@H](Cc1ccc(O)cc1)NC(=O)[C@H](CC(=O)O)NC(=O)[C@H](CO)NC(=O)[C@@H](NC(=O)[C@H](Cc1ccccc1)NC(=O)[C@@H](N)[C@@H](C)O)[C@@H](C)CC)C(=O)N[C@@H](C)C(=O)N[C@@H](CCSC)C(=O)N[C@@H](CC(=O)O)C(=O)N[C@@H](CCCCN)C(=O)N[C@H](C(=O)N[C@@H](Cc1c[nH]cn1)C(=O)N[C@@H](CCC(N)=O)C(=O)N[C@@H](CCC(N)=O)C(=O)N[C@@H](CC(=O)O)C(=O)N[C@@H](Cc1ccccc1)C(=O)N[C@H](C(=O)N[C@@H](CC(N)=O)C(=O)N[C@@H](Cc1c[nH]c2ccccc12)C(=O)N[C@@H](CC(C)C)C(=O)N[C@@H](CCCCNC(=O)CCCCCCCCCCCCCCC(=O)O)C(=O)N[C@@H](C)C(=O)N[C@@H](CCC(N)=O)C(=O)N[C@@H](CCCCN)C(N)=O)C(C)C)[C@@H](C)CC [AT187, [hGIP(5-30)NH2[L27K]-C16diacid/27]] (H-TFISDYSIAMDKIHQQDFVNWLK(C16 diacid)AQK-NH2; N-terminus assumed)						4.58		25		2380			4.7		18.2		67.6	1000 nM and 2510 nM
CC[C@H](C)[C@H](NC(=O)[C@H](CO)NC(=O)[C@H](Cc1ccc(O)cc1)NC(=O)[C@H](CC(=O)O)NC(=O)[C@H](CO)NC(=O)[C@@H](NC(=O)[C@H](Cc1ccccc1)NC(=O)[C@@H](N)[C@@H](C)O)[C@@H](C)CC)C(=O)N[C@@H](C)C(=O)N[C@@H](CCSC)C(=O)N[C@@H](CC(=O)O)C(=O)N[C@@H](CCCCN)C(=O)N[C@H](C(=O)N[C@@H](Cc1c[nH]cn1)C(=O)N[C@@H](CCC(N)=O)C(=O)N[C@@H](CCC(N)=O)C(=O)N[C@@H](CC(=O)O)C(=O)N[C@@H](Cc1ccccc1)C(=O)N[C@H](C(=O)N[C@@H](CC(N)=O)C(=O)N[C@@H](Cc1c[nH]c2ccccc12)C(=O)N[C@@H](CC(C)C)C(=O)N[C@@H](CC(C)C)C(=O)N[C@@H](CCCCNC(=O)CCCCCCCCCCCCCCC(=O)O)C(=O)N[C@@H](CCC(N)=O)C(=O)N[C@@H](CCCCN)C(N)=O)C(C)C)[C@@H](C)CC [AT188, [hGIP(5-30)NH2[A28K]-C16diacid/28]] (H-TFISDYSIAMDKIHQQDFVNWLLK(C16 diacid)QK-NH2; N-terminus assumed)								10		152			0.0	144	3.2	200 nM and 183 nM	6.8	100 nM and 158 nM
CC[C@H](C)[C@H](NC(=O)[C@H](CO)NC(=O)[C@H](Cc1ccc(O)cc1)NC(=O)[C@H](CC(=O)O)NC(=O)[C@H](CO)NC(=O)[C@@H](NC(=O)[C@H](Cc1ccccc1)NC(=O)[C@@H](N)[C@@H](C)O)[C@@H](C)CC)C(=O)N[C@@H](C)C(=O)N[C@@H](CCSC)C(=O)N[C@@H](CC(=O)O)C(=O)N[C@@H](CCCCN)C(=O)N[C@H](C(=O)N[C@@H](Cc1c[nH]cn1)C(=O)N[C@@H](CCC(N)=O)C(=O)N[C@@H](CCC(N)=O)C(=O)N[C@@H](CC(=O)O)C(=O)N[C@@H](Cc1ccccc1)C(=O)N[C@H](C(=O)N[C@@H](CC(N)=O)C(=O)N[C@@H](Cc1c[nH]c2ccccc12)C(=O)N[C@@H](CC(C)C)C(=O)N[C@@H](CC(C)C)C(=O)N[C@@H](C)C(=O)N[C@@H](CCCCNC(=O)CCCCCCCCCCCCCCC(=O)O)C(=O)N[C@@H](CCCCN)C(N)=O)C(C)C)[C@@H](C)CC [AT189, [hGIP(5-30)NH2[Q29K]-C16diacid/29]] (H-TFISDYSIAMDKIHQQDFVNWLLAK(C16 diacid)K-NH2; N-terminus assumed)								12		79			3.2		3.2	126 nM and 118 nM	3.0	100 nM and 79.4 nM
